Measurements as given in patent US20240074986A1, “Methods of Enhancing Non-Viral Gene Therapy” (Spark Therapeutics, Inc., priority 2020, published 2024).

Key:
hFIX = hFIX levels in mouse plasma by ELISA after pexidartinib chow and DNA-LNP-5 (Example 4); format: in vivo; conditions: DNA-LNP-5 10 μg per mouse; 1-4 weeks after dosing; Pex chow 7 or 21 days before dosing or regular chow; FIG. 7
Procedure: Pexidartinib was mixed with mice chow at 400 mg Pex/kg chow. In group 2 and group 3, mice chow was replaced with Pex chow at 21 days and 7 days before DNA-LNP-5 dosing.
Mice in group 1 were fed with regular chow throughout the study and served as controls. Mice were dosed with DNA-LNP-5 (10 μg per mouse). LNP-5 (GenVoy™ LNP) was obtained from Precision NanoSystems Inc.) and contained: ionizable lipid at 50%; DSPC at 10%; cholesterol 37.5%; and stabilizer (PEG-Lipid) at 2.5% (see Roces et al., Pharmaceutics, 2020 12, 1095.) DNA was as described in Example 1. hFIX levels in mouse plasma were quantified using ELISA 1-4 weeks after dosing.

CLEC4F+ Kupffer cells = assay: Liver histology, anti-CLEC4F staining, depletion efficacy (Example 3); format: in vivo, Balb/C mice; conditions: for Kupffer cell depletion (CLEC4F+ staining): clodronate IV 50 or 17 mpk, anti-CD115 IP 12 mpk 1 or 4 doses, pexidartinib oral gavage 100 mpk 4 doses, FIG. 5A
Procedure: (§1) Balb/C mice were treated with the immune cell depletion agents clodronate, anti-CD115 antibody (as described in Example 1), or pexidartinib. Clodronate was provided by IV administration at 50 mpk (1.25 mg) or 17 mpk (425 μg), anti-CD115 antibody was provided by IP administration at 12 mpk (300 μg) 1 dose vs 4 doses. Anti-CD115 antibody was as described in Example 1. Pexidartinib was provided by oral gavage administration at 100 mpk (2.5 mg) 4 doses. A no-treatment mice group was used as a control. Each group contained 5 male BALB/c mice.
(§2) After the treatment, mice were euthanized and the liver samples were harvested for histology. Liver samples were stained with either anti-CLEC4F or anti-CD68 mouse antibody. Individual scores of the treatment groups were normalized by the no-treatment group to calculate depletion efficacy.
(§3) Pexidartinib was mixed with mice chow at 400 mg Pex/kg chow. Liver histology was taken after mice were fed with Pex-chow for 7 or 21 days.

CD68+ macrophages = assay: Liver histology, anti-CD68 staining, depletion efficacy (Example 3); format: in vivo, Balb/C mice; conditions: for CD68+ macrophage depletion: clodronate IV 50 or 17 mpk, anti-CD115 IP 12 mpk 1 or 4 doses, pexidartinib oral gavage 100 mpk 4 doses, FIG. 5B
Procedure: as §1, §2, §3

INF-γ and/or IL-6 = assay: Plasma pro-inflammatory cytokines by MSD 6 hours post-dose (Example 2); format: in vivo, mice (Balb/c); conditions: 6-hour post-dose plasma; SPK-LNP1 50 μg; FIGS. 3A and 3B
Procedure: The effects of immune cell depletion on cytokine release and on transgene expression were studied using an anti-CD115 antibody in combination with clodronate, which is a toxic agent encapsulated in liposomes to induce monocyte/macrophage apoptosis.
FIX transgene DNA plasmid (50 μg), formulated in lipid nanoparticle (LNP) delivery vehicles (SPK-LNP1), was dosed in mice (n=5; Balb/c; Jackson Laboratory) by intravenous administration alone, or in combination with anti-CD115 antibody and/or clodronate (purchased from Liposoma), as outlined in Table 3. SPK-LNP-1 had the following composition: C12-200 lipid at 35%; DOPE at 16%; cholesterol at 46.5%; and C14-PEG2000 (Avanti® Polar Lipids) at 2.5%. DNA and anti-CD115 antibody were as described in Example 1.
6-hour post-dose plasma samples were analyzed for a panel of pro-inflammatory cytokines using MSD: IL-6, IFN-γ, TNF-α and IL-1β.

SMILES	hFIX levels in mouse plasma (hFIX)	Kupffer cell depletion (CLEC4F+ staining) (CLEC4F+ Kupffer cells)	depletion of CLEC4F+ Kupffer cells (CLEC4F+ Kupffer cells; mixed with mice chow at 400 mg Pex/kg chow, fed 7 or 21 days, FIG. 6B)	CD68+ macrophage depletion (CD68+ macrophages)	depletion of CD68+ macrophages (CD68+ macrophages; mixed with mice chow at 400 mg Pex/kg chow, fed 7 or 21 days, FIG. 6A)	cytokine (INF-γ and/or IL-6) levels following DNA-LNP administration (INF-γ and/or IL-6)
FC(F)(F)c1ccc(CNc2ccc(Cc3c[nH]c4ncc(Cl)cc34)cn2)cn1 [Pexidartinib, pexidartinib]	a few mice in Pex-treated groups showed detectable expression	small impact	significant depletion	no impact	significant depletion	
O=P(O)(O)C(Cl)(Cl)P(=O)(O)O [clodronate]		significant effect		significant effect		moderately reduced
